From US10556926B2, “Synthetic artificial peptides with antimicrobial effect” (priority 2014, dated 2020)
Read-outs that look alike come from different tables or passages of the source. No end group written: not given here.

Key:
E. coli DH5α = tested on: E. coli DH5α
Method: (§1) The minimum inhibitory concentration (MIC) of the peptides was carried out by way of example against gram(−) E. coli DH5α (and gram(+) Staphylococcus xylosus (both Deutsche Sammlung von Mikroorganismen and Zellkulturen, DSMZ) in a standardized microdilution method according to the general guidelines of the CLSI (Clinical and Laboratory Standards Institute 2006) and EUCAST (European Committee for Antimicrobial Susceptibility Testing of the European Society of Clinical Microbiology and Infectious Diseases 2003) with slight adaptations to the investigation of cationic antimicrobial peptides (Wiegand et al. 2008). The bacteria cells were cultivated in Mueller-Hinton-Boullion (MHB) to an optical density of 0.4 to 0.6 at 600 nm wavelength, corresponding to about 4·10^8 bacteria per ml. Then, the bacteria cultures were diluted to a bacteria concentration of about 1·10^5 bacteria per ml in sterile MHB. Using the peptides, series of 2-fold dilutions starting at 128 μM to the smallest dilution of 0.5 μM in MHB were prepared. The peptide dilutions were mixed with the dilute bacteria cultures in a […] in the chambers of a 96-well polypropylene microtiter plate (Starlab, Hamburg, Germany), so that the peptides were present in an end concentration between 64 μM and 0.25 μM at a bacteria concentration of 5·10^4 bacteria/ml. Sterile MHB served as negative control, and the positive control used as the corresponding bacteria concentration in MHB without the addition of peptide. The microtiter plates were incubated for 18 hours at 37° C. with shaking at 120 rpm in a climatically controlled chamber. After the incubation, the bacteria concentration was determined by renewed absorption measurement at a wavelength of 600 nm.

Staphylococcus xylosus = tested on: Staphylococcus xylosus
Method: as §1

[1] = tested on: human histiocytic lymphoma cell line U937; assay: Cytotoxicity, direct membrane damage (CytoTox 96), LD50; format: cell-based; details: U937, two hours at 37° C., 0.25-64 μM
Method: The direct membrane damage was investigated with the help of the CytoTox 96 Non-Radioactive Cytotoxicity Assay (Promega, Mannheim, Germany). For this purpose, the cells were sedimented at 100 g for ten minutes at 4° C., and 50 μl of the resulting culture supernatant were added to 50 μl of the CytoTox substrate mix. After an incubation time of 30 minutes in the dark at room temperature, 50 μl of the CytoTox stopping solution were added to the sample and the absorption was measured at 490 nm. To determine the LD50 value, the measurement value of the negative control was deducted from the absorption values and divided by the measurement value of the permeabilization control. The calculated values were plotted graphically against the peptide concentration and fitted using the Origin pro 8.1 G Software according to a sigmoidal model and the LD50 values were ascertained from this. The calculation was carried out analogously to example 5 by reference to the solution of equation 5.1 for the case y=50, where y in this case corresponds to the relative cytotoxicity in percent and x corresponds to the peptide concentration in μM. Representative graphical evaluations of LD50 values are shown in FIG. 6 by reference to the measurement results for the reference peptides BMAP-27, protamine and KL-helix, and also the peptide O1 according to the invention.

[2] = tested on: human histiocytic lymphoma cell line U937; assay: Long-term growth inhibition, minimum toxic concentration (MTC)
Method: The cytotoxic potential of the antimicrobial peptides was determined by way of example by reference to the human histiocytic lymphoma cell line U937 (DSMZ). The influence of the peptides on the permeability of the cell membrane and their longer-term growth-inhibiting effect was investigated. 15 ml of RPMI 1640 medium with 2 mM glutamine and 10% FCS (Biochrom, Berlin, Germany) were inoculated with 1·10^5 cells per ml and cultivated for three days at 37° in T75 cell culture bottles (TPP, Trasadingen, Switzerland) with constant gassing with 5% CO2 in a climatically controlled chamber. The medium was admixed with 10 U/ml penicillin and […] streptomycin (both AppliChem, Darmstadt, Germany) to avoid bacterial contaminations, with no further antibiotics being added during the subsequent recultivation. Before each experiment, the cells were washed by centrifugation at 100 g for five minutes and subsequent resuspension in RPMI 1640 medium with 2 mM glutamine and 10% FCS in each case two times and adjusted to a concentration of 1·10^5 cells per ml. Finally, in each case 100 μl of the U937 cells were transferred to the reaction chambers of a sterile 96-well polypropylene microtiter plate and admixed with in each case 100 μl of a prediluted antimicrobial peptide in RPMI 1640 medium without antibiotic addition, such that end concentrations of in each case 5·10^4 cells per ml at peptide concentrations between 0.25 μM and 64 μM were present. The negative control used was samples without antimicrobial peptide, while Triton X-100 (AppliChem) was used in an end concentration of 5% as positive control for the permeabilization. The samples were cultivated for two hours at 37° C. and with continuous gassing with 5% CO2 in a climatically controlled chamber. Then, in each case 100 μl of each sample were removed and transferred to new sterile microtiter plates for determining the direct membrane damage. The remaining 100 μl of the samples were cultivated for at least four further days.
For this purpose, 10 μl of lysing solution were added to in each case 100 μl of cell suspension and incubated for 60 minutes at 37° C. Then, the cell culture supernatants were investigated as described above. The lowest peptide concentration at which complete suppression of the cell growth was established after four days was stipulated as the minimum toxic concentration (MTC).

[3] = MHB, 18 hours at 37° C., mean of four test series

| Substance | MIC E. coli (E. coli DH5α; DH5α, 18 h) [µM] | MIC S. xylosus (Staphylococcus xylosus; 18 h) [µM] | Toxicity LD50 [1] [µM] | Toxicity MTC (minimum toxic concentration) [2] [µM] | MIC E. coli (E. coli DH5α; [3]) [µM] | MIC S. xylosus (Staphylococcus xylosus; [3]) [µM] |
| --- | --- | --- | --- | --- | --- | --- |
| GSGILILIKRK [M5] | >64 | >64 | >64 | >64 |  |  |
| ILIKRK [N7, ILIKRK] | >64 | >64 | >64 | >64 |  |  |
| ILILIKRK [N5] | 64 | 64 | >64 | >64 |  |  |
| ILILILILKRK [M3] | >64 | >64 | >64 | >64 |  |  |
| KKKFFFFFKKK [S8] | 16 | 4 | >64 |  |  |  |
| KKKIIIIIIKKK-NH2 [O1′] |  |  |  |  | 4 | 0.25 |
| KKKIIIIIKKK [S2] | 8 | 0.5 | >64 |  |  |  |
| KKKKKIIIIIDDDDD [D1] | >64 | >64 | >64 | >64 |  |  |
| KKKKKIIIIIDDDDK [D8] | >64 | >64 | >64 | >64 |  |  |
| KKKKKIIIIIDDDKK [D7] | >64 | >64 | >64 | >64 |  |  |
| KKKKKIIIIIDKKKK [D6] | 32 | 16 | >64 | >64 |  |  |
| KKKKKIIIIIKDDDD [D2] | >64 | >64 | >64 | >64 |  |  |
| KKKKKIIIIIKKKDD [D3] | >64 | 32 | >64 | >64 |  |  |
| KKKKKIIIIIKKKKD [D4] | 32 | 16 | >64 | >64 |  |  |
| KKKKKIIIIIKKKKK [D5] | 16 | 2 | >64 | >64 |  |  |
| KKKLLLLLKKK [S4] | 16 | 8 | >64 |  |  |  |

| Substance | MIC E. coli (E. coli DH5α; DH5α, 18 h) [µM] | MIC S. xylosus (Staphylococcus xylosus; 18 h) [µM] | Toxicity LD50 [1] [µM] | Toxicity MTC (minimum toxic concentration) [2] [µM] | MIC E. coli (E. coli DH5α; [3]) [µM] | MIC S. xylosus (Staphylococcus xylosus; [3]) [µM] |
| --- | --- | --- | --- | --- | --- | --- |
| KKKVVVVVKKK [S6] | 64 | 8 | >64 |  |  |  |
| KLILKRKRKRILIK [A4] | 32 | 16 | >64 | >64 |  |  |
| KRKGKRK [H7, KRKGKRK] | >64 | 64 | >64 | >64 |  |  |
| KRKGSGKRK [H8] | >64 | >64 | >64 | >64 |  |  |
| KRKIKRK [H5, KRKIKRK] | >64 | >64 | >64 | >64 |  |  |
| KRKIL [C8, KRKIL] | >64 | >64 | >64 | >64 |  |  |
| KRKILI [C7, KRKILI] | >64 | >64 | >64 | >64 |  |  |
| KRKILIKRK [H3] | >64 | 64 | >64 | >64 |  |  |
| KRKILIL [C6, KRKILIL] | >64 | >64 | >64 | >64 |  |  |
| KRKILILI [C5] | >64 | >64 | >64 | >64 |  |  |
| KRKILILIGSG [M4] | >64 | >64 | >64 | >64 |  |  |
| KRKILILIK [C4] | 32 | 8 | >64 | >64 |  |  |
| LKLLKKLLKKLLKLL [KL-helix] | 4 | 2 |  | 8.0 |  |  |
| RRRFFFFFRRR [S7] | 4 | 0.5 | >64 |  |  |  |
| RRRIIIIIRRR [S1] | 8 | 2 | >64 |  |  |  |
| RRRLLLLLRRR [S3] | 8 | 1 | >64 |  |  |  |
